Assay results: ChEMBL document CHEMBL1201862, “PubChem BioAssay data set” (2004)
Calls of active or inactive are those of the source.

Assays:
[1] = target: T1, Estrogen receptor beta (Homo sapiens, UniProt Q92731); test: blockers of SRC-3 recruitment to ERβ – biochemical, ELISA, streptavidin-HRP readout, orthogonal assay, confirmation (AID 1060)
[2] = target: DNA (cytosine-5)-methyltransferase 1 (Homo sapiens, UniProt P26358); test: inhibition of DNA methylation by DNMT1 – biochemical, fluorescent molecular beacon, confirmation (AID 602386); assay type: functional
Chain of DNA (cytosine-5)-methyltransferase 1 (P26358 whole entry): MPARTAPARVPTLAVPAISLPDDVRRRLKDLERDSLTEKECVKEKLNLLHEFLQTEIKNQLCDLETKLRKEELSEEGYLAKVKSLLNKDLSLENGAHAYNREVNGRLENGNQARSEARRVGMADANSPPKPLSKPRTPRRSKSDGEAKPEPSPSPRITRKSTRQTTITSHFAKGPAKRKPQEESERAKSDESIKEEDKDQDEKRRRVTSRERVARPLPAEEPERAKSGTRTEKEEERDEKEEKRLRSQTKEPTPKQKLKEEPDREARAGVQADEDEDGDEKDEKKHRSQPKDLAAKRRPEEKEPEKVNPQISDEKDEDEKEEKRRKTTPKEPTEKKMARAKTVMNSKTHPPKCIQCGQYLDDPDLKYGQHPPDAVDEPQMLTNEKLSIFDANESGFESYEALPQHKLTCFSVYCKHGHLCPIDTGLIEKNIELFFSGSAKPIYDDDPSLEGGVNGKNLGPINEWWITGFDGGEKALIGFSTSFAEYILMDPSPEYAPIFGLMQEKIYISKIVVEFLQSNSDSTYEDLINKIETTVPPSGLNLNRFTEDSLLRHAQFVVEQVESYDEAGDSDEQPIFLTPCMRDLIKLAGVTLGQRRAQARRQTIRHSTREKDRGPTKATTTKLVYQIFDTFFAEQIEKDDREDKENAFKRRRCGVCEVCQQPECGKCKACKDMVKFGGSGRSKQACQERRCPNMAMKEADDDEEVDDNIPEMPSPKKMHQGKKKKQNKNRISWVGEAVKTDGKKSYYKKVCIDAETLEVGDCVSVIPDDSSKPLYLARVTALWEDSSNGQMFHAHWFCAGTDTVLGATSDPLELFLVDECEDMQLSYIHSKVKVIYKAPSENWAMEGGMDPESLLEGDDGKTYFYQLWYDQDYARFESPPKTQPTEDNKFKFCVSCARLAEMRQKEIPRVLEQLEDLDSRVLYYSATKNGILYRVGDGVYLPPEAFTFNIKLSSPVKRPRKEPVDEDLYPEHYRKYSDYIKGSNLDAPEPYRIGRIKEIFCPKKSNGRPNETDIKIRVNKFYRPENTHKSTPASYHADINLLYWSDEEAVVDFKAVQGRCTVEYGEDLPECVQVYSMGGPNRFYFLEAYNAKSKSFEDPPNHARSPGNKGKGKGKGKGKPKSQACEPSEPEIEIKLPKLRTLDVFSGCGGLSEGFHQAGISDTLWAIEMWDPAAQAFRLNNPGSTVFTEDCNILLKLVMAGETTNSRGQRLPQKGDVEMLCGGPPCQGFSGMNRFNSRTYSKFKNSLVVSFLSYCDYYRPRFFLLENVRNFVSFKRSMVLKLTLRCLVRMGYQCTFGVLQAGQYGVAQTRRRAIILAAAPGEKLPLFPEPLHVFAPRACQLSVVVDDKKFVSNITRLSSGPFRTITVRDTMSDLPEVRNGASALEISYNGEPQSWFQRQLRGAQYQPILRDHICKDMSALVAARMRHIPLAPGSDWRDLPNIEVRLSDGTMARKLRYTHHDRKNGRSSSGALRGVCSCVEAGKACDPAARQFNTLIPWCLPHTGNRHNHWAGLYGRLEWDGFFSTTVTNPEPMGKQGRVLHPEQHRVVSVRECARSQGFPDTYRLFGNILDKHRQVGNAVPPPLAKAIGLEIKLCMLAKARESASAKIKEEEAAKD

[3] = target: T1, Estrogen receptor beta
[4] = target: T2, Carboxy-terminal domain RNA polymerase II polypeptide A small phosphatase 1 (Homo sapiens, UniProt Q9GZU7); test: CTDSP1 inhibitors, concentration-response, biochemical, absorbance readout, ultra-high-throughput screen actives (AID 540297); assay type: functional
T2 sequence (Q9GZU7 whole entry): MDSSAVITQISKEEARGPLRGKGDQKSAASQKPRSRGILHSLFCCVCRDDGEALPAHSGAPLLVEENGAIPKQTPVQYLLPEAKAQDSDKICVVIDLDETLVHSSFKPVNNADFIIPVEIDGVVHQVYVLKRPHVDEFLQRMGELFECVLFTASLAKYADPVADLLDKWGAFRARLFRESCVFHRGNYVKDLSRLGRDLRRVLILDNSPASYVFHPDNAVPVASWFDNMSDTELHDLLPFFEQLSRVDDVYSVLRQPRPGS

[5] = target: T3, Estrogen receptor (Homo sapiens, UniProt P03372);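 note: potency for inhibiting coactivator peptide recruitment to the receptor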
T3 sequence (P03372 whole entry): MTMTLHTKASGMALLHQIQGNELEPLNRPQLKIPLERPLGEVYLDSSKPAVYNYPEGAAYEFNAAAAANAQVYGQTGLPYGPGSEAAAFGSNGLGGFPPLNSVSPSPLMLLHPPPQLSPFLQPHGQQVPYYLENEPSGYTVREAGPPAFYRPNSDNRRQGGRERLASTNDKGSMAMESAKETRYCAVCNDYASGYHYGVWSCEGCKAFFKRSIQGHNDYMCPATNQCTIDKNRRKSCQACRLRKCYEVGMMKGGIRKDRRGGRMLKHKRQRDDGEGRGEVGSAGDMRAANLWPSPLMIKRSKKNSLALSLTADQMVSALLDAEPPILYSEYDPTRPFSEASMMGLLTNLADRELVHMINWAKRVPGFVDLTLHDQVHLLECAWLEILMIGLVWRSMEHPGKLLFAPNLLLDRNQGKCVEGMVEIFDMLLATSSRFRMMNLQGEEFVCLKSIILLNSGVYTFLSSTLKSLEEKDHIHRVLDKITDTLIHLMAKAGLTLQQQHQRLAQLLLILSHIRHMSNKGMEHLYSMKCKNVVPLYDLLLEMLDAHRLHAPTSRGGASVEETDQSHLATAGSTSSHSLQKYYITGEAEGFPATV

[6] = viability loss in HeLa cells – cytotoxicity control for MgcRacGAP inhibitor project, dose response (AID 624300); assay type: functional
[7] = target: T4, Rac GTPase-activating protein 1 (Homo sapiens, UniProt Q9H0H5); test: blockers of MgcRacGAP-driven Rac1 GTP hydrolysis – biochemical, ADP Hunter fluorescence, primary and confirmatory, confirmation (AID 624330); assay type: functional
T4 sequence (Q9H0H5 whole entry): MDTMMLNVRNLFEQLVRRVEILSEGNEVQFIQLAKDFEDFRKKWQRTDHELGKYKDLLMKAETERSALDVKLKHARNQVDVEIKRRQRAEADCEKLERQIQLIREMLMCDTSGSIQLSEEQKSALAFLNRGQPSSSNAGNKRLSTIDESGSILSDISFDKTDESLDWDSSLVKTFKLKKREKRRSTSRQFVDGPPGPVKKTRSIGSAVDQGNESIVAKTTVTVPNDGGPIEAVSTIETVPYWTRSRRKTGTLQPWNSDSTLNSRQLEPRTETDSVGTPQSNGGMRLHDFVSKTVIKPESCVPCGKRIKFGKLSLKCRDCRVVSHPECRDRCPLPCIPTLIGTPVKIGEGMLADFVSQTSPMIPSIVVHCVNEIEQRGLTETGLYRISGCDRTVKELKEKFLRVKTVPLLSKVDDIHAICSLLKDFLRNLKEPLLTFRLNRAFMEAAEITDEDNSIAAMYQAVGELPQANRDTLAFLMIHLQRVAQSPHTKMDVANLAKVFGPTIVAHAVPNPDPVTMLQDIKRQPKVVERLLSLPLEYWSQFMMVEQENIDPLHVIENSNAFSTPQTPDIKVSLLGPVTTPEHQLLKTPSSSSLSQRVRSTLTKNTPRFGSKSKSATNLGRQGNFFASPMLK

[8] = fluconazole-exposed Candida albicans growth modulators – fluorescence, retest, confirmation (AID 2467); assay type: functional, cell-based
[9] = NIH-3T3 fibroblast cytotoxicity, dose response, cytotoxicity control, cell-based, fluorescence, Alamar Blue, secondary assay (AID 2327); assay type: functional;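 note: NIH-3T3 mouse fibroblasts cultured with fluconazole at 8 µg/mL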
[10] = target: ADP-ribosylation factor GTPase-activating protein 1 (Rattus norvegicus, UniProt Q62848); test: Fluorescence polarization-based biochemical high throughput dose response screening assay to identify inhibitors of ADP-ribosylation factor GTPase activating protein 1 (ARFGAP1).; assay type: functional
Chain of ADP-ribosylation factor GTPase-activating protein 1 (Q62848 whole entry): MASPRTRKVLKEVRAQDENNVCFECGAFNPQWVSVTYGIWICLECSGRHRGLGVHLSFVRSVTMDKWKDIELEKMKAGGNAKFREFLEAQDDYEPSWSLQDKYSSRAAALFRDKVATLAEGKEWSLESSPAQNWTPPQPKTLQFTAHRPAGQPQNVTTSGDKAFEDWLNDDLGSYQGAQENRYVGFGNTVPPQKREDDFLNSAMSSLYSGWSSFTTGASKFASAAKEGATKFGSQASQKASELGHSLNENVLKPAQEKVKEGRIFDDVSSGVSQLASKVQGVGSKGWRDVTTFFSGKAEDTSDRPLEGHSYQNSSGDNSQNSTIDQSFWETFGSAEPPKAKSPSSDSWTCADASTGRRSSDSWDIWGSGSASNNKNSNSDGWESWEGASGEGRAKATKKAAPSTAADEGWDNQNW

[11] = tested on: Vero; test: viability loss in Vero cells – cell-based, plate reader, cherry-pick samples, cytotoxicity control, dose response (AID 687020); assay type: functional; conditions: Chlorocebus sabaeus
[12] = target: T5, Sentrin-specific protease 1 (Homo sapiens, UniProt Q9P0U3); test: SENP1 catalytic domain blockers, concentration series – biochemical, kinetic FRET, dose response (AID 651697); assay type: functional; conditions: read-out: IC50_Mean
T5 sequence (Q9P0U3 whole entry, the tested form may be a part): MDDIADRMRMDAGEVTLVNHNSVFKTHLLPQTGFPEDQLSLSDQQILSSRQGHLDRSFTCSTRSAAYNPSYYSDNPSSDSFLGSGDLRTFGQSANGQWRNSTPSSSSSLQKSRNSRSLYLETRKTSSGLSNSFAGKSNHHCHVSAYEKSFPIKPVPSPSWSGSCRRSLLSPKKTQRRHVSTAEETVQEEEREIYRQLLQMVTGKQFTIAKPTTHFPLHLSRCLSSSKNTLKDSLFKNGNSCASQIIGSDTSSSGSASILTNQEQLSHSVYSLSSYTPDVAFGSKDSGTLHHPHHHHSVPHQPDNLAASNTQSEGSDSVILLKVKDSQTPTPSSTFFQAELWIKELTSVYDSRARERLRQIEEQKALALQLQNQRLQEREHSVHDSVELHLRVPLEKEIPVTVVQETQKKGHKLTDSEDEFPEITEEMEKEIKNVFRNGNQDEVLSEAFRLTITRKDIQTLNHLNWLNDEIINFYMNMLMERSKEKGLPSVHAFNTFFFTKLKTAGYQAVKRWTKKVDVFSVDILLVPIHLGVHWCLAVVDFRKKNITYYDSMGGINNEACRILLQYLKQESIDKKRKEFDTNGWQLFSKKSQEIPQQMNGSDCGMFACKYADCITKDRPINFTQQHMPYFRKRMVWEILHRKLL

[13] = target: T5, Sentrin-specific protease 1; test: Dose response confirmation of small molecule inhibitors of the catalytic domain of the SUMO protease, SENP1 in a FRET assay.; assay type: functional; conditions: read-out: IC50_Mean

T1 sequence (Q92731 whole entry): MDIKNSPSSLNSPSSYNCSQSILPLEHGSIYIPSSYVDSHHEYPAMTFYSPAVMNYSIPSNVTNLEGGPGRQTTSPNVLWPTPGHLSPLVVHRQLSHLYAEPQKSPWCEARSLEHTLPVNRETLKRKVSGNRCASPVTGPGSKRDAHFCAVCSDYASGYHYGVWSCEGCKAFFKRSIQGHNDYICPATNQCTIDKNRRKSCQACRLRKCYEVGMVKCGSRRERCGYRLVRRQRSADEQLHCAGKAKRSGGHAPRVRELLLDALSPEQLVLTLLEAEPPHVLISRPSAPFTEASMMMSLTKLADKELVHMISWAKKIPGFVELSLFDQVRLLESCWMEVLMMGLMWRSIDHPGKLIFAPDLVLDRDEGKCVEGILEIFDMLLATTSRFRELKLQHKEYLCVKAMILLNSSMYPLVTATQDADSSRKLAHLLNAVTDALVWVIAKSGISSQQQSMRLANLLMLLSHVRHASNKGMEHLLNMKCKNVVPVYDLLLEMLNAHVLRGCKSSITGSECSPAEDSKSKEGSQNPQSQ

Cc1ccnc(NS(=O)(=O)c2ccc(NC(=O)Cc3cccs3)cc2)n1
IC50 [1]: > 109 µM (not active) | IC50 [2]: 9.16 µM (active) | IC50 [3]: 3.09 µM (active) | IC50 [4]: 4.2 µM (active) | IC50 [5]: 12.2 µM (active)

COc1cc(/C=C(\C#N)c2nc3ccccc3[nH]2)ccc1O
CC50 [6]: 99.9 µM (active) | IC50 [7]: 15.9 µM (active) | EC50 [8]: 1.41 µM (active) | EC50 [9]: 49.9 µM (active)

Cc1ccc2nc3c(O)n(CC(=O)Nc4ccccc4N4CCN(C)CC4)ncc-3c2c1
IC50 [10]: 74 µM (inactive)

O=C(NCCN1CCCC1)[C@H]1N[C@H]2c3ccc(-c4ccccc4)c(=O)n3C[C@H]2[C@@H]1CO
AC50 [11]: 23.1 µM (active)

Cc1ccc(-n2cc(-c3ccc([N+](=O)[O-])cc3)[nH]c2=S)c(C)c1
IC50 [12]: 54.1 µM (inactive) | IC50 [13]: 17.2 µM (active)
